Legend:
[1] = tested on: MCF7; assay: Antiproliferative activity against doxorubicin-resistant human MCF7 cells after 72 hrs by neutral red uptake assay; format: functional, cell-based
[2] = tested on: KB; assay: Antiproliferative activity against human KB cells after 72 hrs by neutral red uptake assay; format: functional, cell-based
[3] = tested on: MCF7; assay: Antiproliferative activity against wild-type human MCF7 cells after 72 hrs by neutral red uptake assay; format: functional, cell-based
[4] = tested on: Artemia salina; assay: Toxicity in brine shrimp; format: functional; conditions: read-out: ED50 (the source's name)
[5] = Antiproliferative activity against human SW707 cells after 72 hrs by sulforhodamine B assay; format: functional; conditions: SW707, 72 h, read-out: ID50 (the source's name)
[6] = Antiproliferative activity against human HCV29T cells after 72 hrs by sulforhodamine B assay; format: functional; conditions: read-out: ID50 (the source's name)
[7] = tested on: K562; assay: Antiproliferative activity against human K562 cells by MTT assay; format: functional, cell-based
[8] = tested on: L1210; assay: Antiproliferative activity against mouse L1210 cells after 24 hrs by MTS assay; format: functional, cell-based; conditions: L1210, 24 h
[9] = tested on: KB; assay: Antiproliferative activity against hydroxyurea-resistant human KB cells after 24 hrs by MTS assay; format: functional, cell-based
[10] = tested on: KB; assay: Antiproliferative activity against wild-type human KB cells after 24 hrs by MTS assay; format: functional, cell-based
[11] = tested on: WIL2-NS; assay: Antiproliferative activity against human WIL2-NS cells after 96 hrs by MTT assay; format: functional, cell-based
[12] = tested on: CCRF-CEM; assay: Antiproliferative activity against human CCRF-CEM cells after 96 hrs by MTT assay; format: functional, cell-based
[13] = tested on: CCRF-SB; assay: Antiproliferative activity against human CCRF-SB cells after 96 hrs by MTT assay; format: functional, cell-based
[14] = tested on: MT4; assay: Antiproliferative activity against human MT4 cells after 96 hrs by MTT assay; format: functional, cell-based; conditions: MT4, 96 h
[15] = tested on: A2780; assay: Antiproliferative activity against cisplatin-resistant human A2780 cells after 72 hrs by MTT assay; format: functional, cell-based; conditions: A2780, 72 h
[16] = tested on: MCF7; assay: Antiproliferative activity against human MCF7 cells after 24 hrs by MTT assay; format: functional, cell-based; conditions: MCF7, 24 h
[17] = tested on: A2780; assay: Antiproliferative activity against human A2780 cells after 72 hrs by MTT assay; format: functional, cell-based; conditions: A2780, 72 h
[18] = tested on: PC-3; assay: Antiproliferative activity against human PC3 cells after 24 hrs by MTT assay; format: functional, cell-based; conditions: PC-3, 24 h
[19] = tested on: HeLa; assay: Antiproliferative activity against human HeLa cells after 48 hrs by MTT assay; format: functional, cell-based
[20] = tested on: A549; assay: Antiproliferative activity against human A549 cells after 48 hrs by MTT assay; format: functional, cell-based; conditions: A549, 48 h
[21] = tested on: HeLa; assay: Antiproliferative activity against human HeLa cells after 24 hrs by MTT assay; format: functional, cell-based
[22] = tested on: A549; assay: Antiproliferative activity against human A549 cells after 24 hrs by MTT assay; format: functional, cell-based; conditions: A549, 24 h
[23] = tested on: MCF7; assay: Antiproliferative activity against human MCF7 cells after 96 hrs by MTT assay; format: functional, cell-based; conditions: MCF7, 96 h
[24] = tested on: SK-MEL-28; assay: Antiproliferative activity against human SK-MEL-28 cells after 96 hrs by MTT assay; format: functional, cell-based; conditions: SK-MEL-28, 96 h
[25] = tested on: HCT-116; assay: Selectivity ratio of IC50 for human HCT116 cells to IC50 for human Hep2 cells; format: functional
[26] = tested on: HEp-2; assay: Antiproliferative activity against human Hep2 cells after 48 hrs by sulforhodamine B assay; format: functional, cell-based; conditions: HEp-2, 48 h
[27] = tested on: HCT-116; assay: Antiproliferative activity against human HCT116 cells after 48 hrs by sulforhodamine B assay; format: functional, cell-based; conditions: HCT-116, 48 h
[28] = Antiproliferative activity against human T-lymphoblastic leukemia cells by MTT assay; format: functional; conditions: Leukemia cell, read-out: CD50 (the source's name)

CC/N=C/c1c(O)c(O)c(C(C)C)c2cc(C)c(-c3c(C)cc4c(C(C)C)c(O)c(O)c(/C=N/CC)c4c3O)c(O)c12 (stereo in doubt; (+/-)-74)
IC50 ([1]; mcf7): 0.4 µM | IC50 ([2]; kb): 1 µM | IC50 ([3]; mcf7): 5 µM

O=C(O)C(Cc1ccccc1)/N=C1/c2c(O)cccc2Cc2cc(CO)cc(O)c21 (stereo unspecified)
EC50 [4]: 335 µM

Clc1cccc(/C=N/c2nc3ccccc3[nH]2)c1
IC50 [5]: 52.4 µM | IC50 [6]: 75.5 µM

O=C(O)C/N=C1/c2c(O)cccc2Cc2cc(CO)cc(O)c21
EC50 [4]: 1030 µM

CCC(C)C(/N=C1/c2c(O)cccc2Cc2cc(CO)cc(O)c21)C(=O)O (stereo unspecified)
EC50 [4]: 246 µM

C/N=C/c1c(O)c(O)c(C(C)C)c2c1C(=O)C(C1=C(C)C(=O)c3c(c(/C=N/C)c(O)c(O)c3C(C)C)C1=O)=C(C)C2=O
IC50 ([1]; Homo sapiens, MCF7, 72 h): 0.1 µM | IC50 ([2]; Homo sapiens, KB, 72 h): 0.5 µM | IC50 ([3]; Homo sapiens, MCF7, 72 h): 0.4 µM

Clc1ccccc1/C=N/c1nc2ccccc2[nH]1
IC50 [5]: 63.4 µM | IC50 [6]: 31.7 µM

CC/N=C/c1c(O)c(O)c(C(C)C)c2cc(C)c(-c3c(C)cc4c(C(C)C)c(O)c(O)c(/C=N/CC)c4c3O)c(O)c12 (stereo in doubt; (-)-74)
IC50 ([1]; mcf7): 0.8 µM | IC50 ([2]; kb): 0.3 µM | IC50 ([3]; mcf7): 0.2 µM

CSCCC(/N=C1/c2c(O)cccc2Cc2cc(CO)cc(O)c21)C(=O)O (stereo unspecified)
EC50 [4]: 836 µM

CC(/N=C1/c2c(O)cccc2C([C@@H]2O[C@H](CO)[C@@H](O)[C@H](O)[C@H]2O)c2cc(CO)cc(O)c21)C(=O)O (stereo partly specified)
EC50 [4]: 130 µM

Brc1ccc(/C=N/c2nc3ccccc3[nH]2)cc1
IC50 [5]: 33.3 µM | IC50 [6]: 32 µM

Cc1cc(O)c2c(c1)C([C@@H]1O[C@H](CO)[C@@H](O)[C@H](O)[C@H]1O)c1cccc(O)c1/C2=N/C(CS)C(=O)O (stereo partly specified)
EC50 [4]: 10.2 µM

CSCCC(/N=C1/c2c(O)cccc2C([C@@H]2O[C@H](CO)[C@@H](O)[C@H](O)[C@H]2O)c2cc(CO)cc(O)c21)C(=O)O (stereo partly specified)
EC50 [4]: 404 µM

CC(C)C(/N=C1/c2c(O)cccc2C([C@@H]2O[C@H](CO)[C@@H](O)[C@H](O)[C@H]2O)c2cc(CO)cc(O)c21)C(=O)O (stereo partly specified)
EC50 [4]: 19.1 µM

CSC(=S)N/N=C(\c1ccccc1)c1ccccn1
IC50 [7]: 35 µM

CCC(C)C(/N=C1/c2c(O)cccc2C([C@@H]2O[C@H](CO)[C@@H](O)[C@H](O)[C@H]2O)c2cc(CO)cc(O)c21)C(=O)O (stereo partly specified)
EC50 [4]: 35.2 µM

Cc1c2ccccc2c(/C=N/NC(=O)NO)c2ccccc12
IC50 [8]: 6.5 µM | IC50 [9]: 8.9 µM | IC50 [10]: 9.3 µM

Cc1ccc2snc(/N=C\c3cccc(Cl)c3)c2c1
IC50 [11]: 7 µM | IC50 [12]: 1.5 µM | IC50 [13]: 4 µM | IC50 [14]: 2 µM

Oc1c(Cl)cc(Cl)cc1/C=N\CCn1cccn1
IC50 [15]: 26 µM | IC50 [16]: 32 µM | IC50 [17]: 27 µM | IC50 [18]: 39 µM

O=[N+]([O-])c1ccc(/C=N/c2ccccc2)cc1
IC50 [19]: 123 µM | IC50 [20]: 1.6 µM | IC50 [21]: 165 µM | IC50 [22]: 2 µM

CC(O)C(/N=C1/c2c(O)cccc2C([C@@H]2O[C@H](CO)[C@@H](O)[C@H](O)[C@H]2O)c2cc(CO)cc(O)c21)C(=O)O (stereo partly specified)
EC50 [4]: 27.6 µM

O=C(NO)N/N=C/c1ccc(O)c(O)c1O
IC50 [9]: 15.3 µM | IC50 [10]: 37.5 µM

O=[N+]([O-])c1ccc(/C=N/c2nc3ccccc3[nH]2)cc1
IC50 [5]: 87.1 µM | IC50 [6]: 88.3 µM

Cc1ccc(/C=N/c2ccccc2)c(C)c1
IC50 [19]: 33 µM | IC50 [20]: 88.4 µM | IC50 [21]: 115 µM | IC50 [22]: 144 µM

Cc1ccc2snc(/N=C\c3ccccc3Cl)c2c1
IC50 [11]: 5 µM | IC50 [12]: 1.5 µM | IC50 [13]: 3 µM | IC50 [14]: 3 µM

Clc1ccc(/C=N/c2ccccc2)c(Cl)c1
IC50 [19]: 0.5 µM | IC50 [20]: 0.8 µM | IC50 [21]: 1.3 µM | IC50 [22]: 1.4 µM

COc1cccc(/C=N\c2nsc3ccccc23)c1O
IC50 [11]: 10 µM | IC50 [12]: 2 µM | IC50 [13]: 5 µM | IC50 [14]: 5 µM

Oc1c(I)cc(I)cc1/C=N\CCn1cccn1
IC50 [15]: 25 µM | IC50 [16]: 34 µM | IC50 [17]: 20 µM | IC50 [18]: 32 µM

FC(F)(F)c1ccc(/C=N/c2nc3ccccc3[nH]2)cc1
IC50 [6]: 200 µM

COc1ccc(/C=N/c2nc3ccccc3[nH]2)cc1OC
IC50 [5]: 154 µM | IC50 [6]: 106 µM

O=C(O)C(Cc1ccccc1)/N=C1/c2c(O)cccc2C([C@@H]2O[C@H](CO)[C@@H](O)[C@H](O)[C@H]2O)c2cc(CO)cc(O)c21 (stereo partly specified)
EC50 [4]: 312 µM

O=C(NO)N/N=C/c1cc(Cl)cc(Cl)c1O
IC50 [9]: 21.2 µM | IC50 [10]: 22.2 µM

COc1cc(/C=N/c2nc3ccccc3[nH]2)cc(OC)c1OC
IC50 [5]: 50.4 µM | IC50 [6]: 52.4 µM

C(=N\c1ccccc1)/c1ccc2c(c1)OCO2
IC50 [19]: 24.9 µM | IC50 [20]: 177 µM | IC50 [21]: 42.2 µM | IC50 [22]: 207 µM

Cc1ccc2snc(/N=C\c3ccccc3O)c2c1
IC50 [11]: 6 µM | IC50 [12]: 2 µM | IC50 [13]: 3 µM | IC50 [14]: 5 µM

O=C(O)C/N=C1/c2c(O)cccc2C([C@@H]2O[C@H](CO)[C@@H](O)[C@H](O)[C@H]2O)c2cc(CO)cc(O)c21 (stereo partly specified)
EC50 [4]: 408 µM

CC(O)C(/N=C1/c2c(O)cccc2Cc2cc(CO)cc(O)c21)C(=O)O (stereo unspecified)
EC50 [4]: 339 µM

S=C(N/N=C(\c1ccccc1)c1ccccn1)SCc1ccccc1
IC50 [7]: 37 µM

Clc1cccc(/C=N\c2nsc3ccccc23)c1
IC50 [11]: 10 µM | IC50 [12]: 2 µM | IC50 [13]: 4 µM | IC50 [14]: 6 µM

CC(C)C(/N=C1/c2c(O)cccc2Cc2cc(CO)cc(O)c21)C(=O)O (stereo unspecified)
EC50 [4]: 145 µM

O=C(NO)N/N=C/c1ccc([N+](=O)[O-])s1
IC50 [9]: 28 µM | IC50 [10]: 27.2 µM

CC(C)CC(/N=C1/c2c(O)cccc2C([C@@H]2O[C@H](CO)[C@@H](O)[C@H](O)[C@H]2O)c2cc(CO)cc(O)c21)C(=O)O (stereo partly specified)
EC50 [4]: 32 µM

O=[N+]([O-])c1ccc(/C=N\c2nsc3ccccc23)o1
IC50 [23]: 10 µM | IC50 [11]: 6.5 µM | IC50 [24]: 6 µM | IC50 [12]: 2 µM | IC50 [13]: 5 µM | IC50 [14]: 2 µM

CC/N=C/c1c(O)c(O)c(C(C)C)c2cc(C)c(-c3c(C)cc4c(C(C)C)c(O)c(O)c(/C=N/CC)c4c3O)c(O)c12 (stereo in doubt; (+)-74)
IC50 ([1]; mcf7): 0.3 µM | IC50 ([2]; kb): 1.6 µM | IC50 ([3]; mcf7): 1 µM

Oc1ccccc1/C=N\CCn1cccn1
IC50 [16]: 715 µM | IC50 [18]: 522 µM

CC(C)CC(/N=C1/c2c(O)cccc2Cc2cc(CO)cc(O)c21)C(=O)O (stereo unspecified)
EC50 [4]: 72.2 µM

FC(F)(F)c1ccc(/C=N/c2ccccc2)cc1
IC50 [19]: 0.9 µM | IC50 [20]: 138 µM | IC50 [21]: 1.9 µM | IC50 [22]: 161 µM

CC(/N=C1/c2c(O)cccc2Cc2cc(CO)cc(O)c21)C(=O)O (stereo unspecified)
EC50 [4]: 339 µM

Cc1cc(O)c2c(c1)Cc1cccc(O)c1/C2=N/C(CS)C(=O)O (stereo unspecified)
EC50 [4]: 423 µM

COc1ccc(/C=N/c2nc3ccccc3[nH]2)cc1
IC50 [5]: 183 µM | IC50 [6]: 179 µM

COc1ccc(/C=N\c2nsc3ccc(C)cc23)cc1
IC50 [11]: 6.5 µM | IC50 [12]: 1.5 µM | IC50 [13]: 4 µM | IC50 [14]: 4 µM

Oc1ccc(Br)cc1/C=N/Cc1cccs1
Ratio IC50 [25]: >2 | IC50 [26]: 3.8 µM | IC50 [27]: 9.1 µM

COc1cc(/C=N\c2nsc3ccccc23)ccc1O
IC50 [11]: 10 µM | IC50 [12]: 2.5 µM | IC50 [13]: 4 µM | IC50 [14]: 5 µM

Brc1ccccc1/C=N/c1nc2ccccc2[nH]1
IC50 [5]: 26.3 µM | IC50 [6]: 35.3 µM

C(=N\Cc1ccco1)/c1c2ccccc2cc2ccccc12
CC50 [28]: 67.8 µM
